Target: T1, serotonin 5-HT3A receptor (Homo sapiens, UniProt P46098)
T1 sequence (P46098 24-478): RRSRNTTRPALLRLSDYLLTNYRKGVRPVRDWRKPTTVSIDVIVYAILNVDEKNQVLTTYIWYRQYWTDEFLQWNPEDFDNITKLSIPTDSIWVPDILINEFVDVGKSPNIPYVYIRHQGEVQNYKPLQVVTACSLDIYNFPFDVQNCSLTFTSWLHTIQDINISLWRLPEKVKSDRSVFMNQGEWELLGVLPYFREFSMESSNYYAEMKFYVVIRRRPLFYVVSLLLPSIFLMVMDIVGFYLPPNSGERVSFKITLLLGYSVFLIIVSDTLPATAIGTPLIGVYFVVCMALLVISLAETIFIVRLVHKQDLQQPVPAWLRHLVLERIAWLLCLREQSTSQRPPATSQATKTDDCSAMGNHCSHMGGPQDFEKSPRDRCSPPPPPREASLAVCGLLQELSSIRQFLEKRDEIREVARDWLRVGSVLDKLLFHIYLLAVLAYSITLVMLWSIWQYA
Assay: Assay for 5-HT3A receptor: two-electrode voltage clamp in Xenopus oocytes, inhibition of 5-HT-induced inward current
Format: cell-based
Conditions: 5-HT3A receptor expressed in Xenopus laevis oocytes; for nH (Hill coefficient) / inhibition: from concentration-response curves; for inhibition / IC50: inward current induced by 5-HT (1 μM); for inhibition: read-out: Vmax (maximum inhibition value); for IC50: test concentrations 0.003-100 μM, read-out: IC50 (50% inhibitory concentration)

| Structure (SMILES) | nH (Hill coefficient) | inhibition | IC50 |
| --- | --- | --- | --- |
| O=C(NCCN1CCCCC1)c1ccc2c(=O)n(-c3ccc(F)cc3)c(=O)[nH]c2c1 [Compound 2, 3-(4-Fluoro-phenyl)-2,4-dioxo-1,2,3,4-tetrahydro-quinazoline-7-carboxylic acid (2-piperidine-1-yl-ethyl)-amide] | 0.9 ± 0.1 | 108 ± 6% | 1900 ± 400 nM |
| O=C(NCCN1CCCCC1)c1ccc2c(=O)n(Cc3ccccc3F)c(=O)[nH]c2c1 [Compound 4, 3-(2-Fluoro-benzyl)-2,4-dioxo-1,2,3,4-tetrahydro-quinazoline-7-carboxylic acid (2-piperidine-1-yl-ethyl)-amide] | 1.4 ± 0.4 | 100 ± 9.6% | 2100 ± 600 nM |
| O=C(NCCN1CCCCC1)c1ccc2c(=O)n(Cc3cccc(F)c3)c(=O)[nH]c2c1 [Compound 5, 3-(3-Fluoro-benzyl)-2,4-dioxo-1,2,3,4-tetrahydro-quinazoline-7-carboxylic acid (2-piperidine-1-yl-ethyl)-amide] | 1.0 ± 0.2 | 108 ± 11.5% | 2400 ± 800 nM |
| O=C(NCCN1CCCCC1)c1ccc2c(=O)n(Cc3ccc(F)cc3)c(=O)[nH]c2c1 [Compound 6, 3-(4-Fluoro-benzyl)-2,4-dioxo-1,2,3,4-tetrahydro-quinazoline-7-carboxylic acid (2-piperidine-1-yl-ethyl)-amide] | 1.0 ± 0.2 | 105 ± 7.5% | 1900 ± 400 nM |
| COc1ccccc1Cn1c(=O)[nH]c2cc(C(=O)NCCN3CCCCC3)ccc2c1=O [Compound 7, 3-(2-Methoxy-benzyl)-2,4-dioxo-1,2,3,4-tetrahydro-quinazoline-7-carboxylic acid (2-piperidine-1-yl-ethyl)-amide] | 1.1 ± 0.2 | 103 ± 5.1% | 1400 ± 200 nM |
| COc1ccc(Cn2c(=O)[nH]c3cc(C(=O)NCCN4CCCCC4)ccc3c2=O)cc1 [Compound 9, 3-(4-Methoxybenzyl)-2,4-dioxo-1,2,3,4-tetrahydro-quinazoline-7-carboxylic acid (2-piperidine-1-yl-ethyl)-amide] | 1.7 ± 0.2 | 96.4 ± 2.9% | 800 ± 100 nM |
| O=C(NCCN1CCCCC1)c1ccc2c(=O)n(C3CCCCC3)c(=O)[nH]c2c1 [Compound 10, 3-Cyclohexyl-2,4-dioxo-1,2,3,4-tetrahydro-quinazoline-7-carboxylic acid (2-piperidine-1-yl-ethyl)-amide] | 1.1 ± 0.1 | 98.8 ± 4.2% | 2000 ± 300 nM |
| Cn1c(=O)[nH]c2cc(C(=O)NCCN3CCCCC3)ccc2c1=O [Compound 12, 3-Methyl-2,4-dioxo-1,2,3,4-tetrahydro-quinazoline-7-carboxylic acid (2-piperidine-1-yl-ethyl)-amide] | 1.4 ± 0.1 | 103 ± 3.3% | 2200 ± 200 nM |
| O=C(NCCN1CCCCC1)c1ccc2c(=O)n(Cc3ccc(Cl)cc3)c(=O)[nH]c2c1 [Compound 14, 3-(4-Chloro-benzyl)-2,4-dioxo-1,2,3,4-tetrahydro-quinazoline-7-carboxylic acid (2-piperidine-1-yl-ethyl)-amide] | 1.2 ± 0.2 | 106 ± 2.5% | 3300 ± 500 nM |
| O=C(NCCCN1CCOCC1)c1ccc2c(=O)n(Cc3ccc(Cl)cc3)c(=O)[nH]c2c1 [Compound 16, 3-(4-Chloro-benzyl)-2,4-dioxo-1,2,3,4-tetrahydro-quinazoline-7-carboxylic acid (3-morpholine-4-yl-propyl)-amide] | 5.3 ± 1.5 | 52.5 ± 0.6% | 1300 ± 100 nM |
| CCC1CCCCN1CCCNC(=O)c1ccc2c(=O)n(Cc3ccc(Cl)cc3)c(=O)[nH]c2c1 (centres unmarked) [Compound 18, 3-(4-Chloro-benzyl)-2,4-dioxo-1,2,3,4-tetrahydro-quinazoline-7-carboxylic acid [3-(2-ethyl-piperidine-1-yl)-propyl]-amide] | 1.4 ± 0.1 | 99.5 ± 1.6% | 4800 ± 200 nM |
| O=C(NCCCN1CCCCC1)c1ccc2c(=O)n(Cc3ccc(Cl)cc3)c(=O)[nH]c2c1 [Compound 19, 3-(4-Chloro-benzyl)-2,4-dioxo-1,2,3,4-tetrahydro-quinazoline-7-carboxylic acid (3-piperidine-1-yl-propyl)-amide] | 1.5 ± 0.2 | 98.2 ± 4.5% | 5700 ± 600 nM |
| CN1[C@@H]2CC[C@H]1C[C@@H](OC(=O)c1cc(Cl)cc(Cl)c1)C2 [MDL72222, reference compound] | 1.25 ± 0.2 |  |  |

Now from value to compound:

| nH (Hill coefficient) | inhibition | IC50 | Structure (SMILES) |
| --- | --- | --- | --- |
| 0.9 ± 0.1 | 103 ± 12.8% | 7500 ± 2500 nM | O=C(NCCN1CCCC1)c1ccc2c(=O)n(Cc3ccc(Cl)cc3)c(=O)[nH]c2c1 [Compound 1, 3-(4-Chloro-benzyl)-2,4-dioxo-1,2,3,4-tetrahydro-quinazoline-7-carboxylic acid (2-pyrrolidine-1-yl-ethyl)-amide] |
| 1.4 ± 0.2 | 101 ± 3.6% | 1600 ± 200 nM | COc1ccc(-n2c(=O)[nH]c3cc(C(=O)NCCN4CCCCC4)ccc3c2=O)cc1 [Compound 3, 3-(4-Methoxy-phenyl)-2,4-dioxo-1,2,3,4-tetrahydro-quinazoline-7-carboxylic acid (2-piperidine-1-yl-ethyl)-amide] |
| 1.3 ± 0.3 | 107 ± 8.5% | 2700 ± 600 nM | COc1cccc(Cn2c(=O)[nH]c3cc(C(=O)NCCN4CCCCC4)ccc3c2=O)c1 [Compound 8, 3-(3-Methoxybenzyl)-2,4-dioxo-1,2,3,4-tetrahydro-quinazoline-7-carboxylic acid (2-piperidine-1-yl-ethyl)-amide] |
| 1.3 ± 0.1 | 104 ± 3.6% | 2200 ± 200 nM | CCCn1c(=O)[nH]c2cc(C(=O)NCCN3CCCCC3)ccc2c1=O [Compound 11, 2,4-Dioxo-3-propyl-1,2,3,4-tetrahydro-quinazoline-7-carboxylic acid (2-piperidine-1-yl-ethyl)-amide] |
|  | 96 ± 3.9% |  | O=C(NCCN1CCCCC1)c1ccc2c(=O)n(Cc3ccccc3Cl)c(=O)[nH]c2c1 [Compound 13, (2-Chloro-benzyl)-2,4-dioxo-1,2,3,4-tetrahydro-quinazoline-7-carboxylic acid (2-piperidine-1-yl-ethyl)-amide] |
| 1.2 ± 0.1 | 104 ± 2.5% | 2800 ± 200 nM | CC1CCCCN1CCNC(=O)c1ccc2c(=O)n(Cc3ccc(Cl)cc3)c(=O)[nH]c2c1 (centres unmarked) [Compound 15, 3-(4-Chloro-benzyl)-2,4-dioxo-1,2,3,4-tetrahydro-quinazoline-7-carboxylic acid (2-(2-methylpiperidine-1-yl)ethyl)-amide] |

Source: US8748422B2, “Pharmaceutical compositions containing quinazoline derivatives for treating as serotonin receptor antagonist” (Korea Institute of Science and Technology, priority 2007, dated 2014)
